Results on 1 molecule are retold here after US20260167629A1, “NOVEL INDAZOLE DERIVATIVE OR PHARMACEUTICALLY ACCEPTABLE SALT THEREOF, AND USE THEREOF” (KOREA UNIVERSITY RESEARCH AND BUSINESS FOUNDATION, priority 2022, published 2026).

The test system of data set [1] is colorectal cancer cell line HCT116. The data set is described as follows: MTS cell viability assay in HCT116. Type of data set: cell-based. Conditions: HCT116, 0.1-20 μM, 72 hours. How it is done:
(§1) Specifically, cells were attached to 96 well plates for 24 hours, and then treated with the indazole derivatives for 72 hours. Thereafter, the cells were chromogenized with MTS for 4 hours, and the absorbance was measured at 490 nm using a Spectramax Plus384 microplate analyzer. The significance between the control group and the experimental group was verified using an unpaired Students t-test (*p<0.01; DMSO control vs indazole series).
(§2) In addition to the breast cancer cell line, a leukemia cell line HL-60, a liver cancer cell line HepG2, a colorectal cancer cell line HCT116, a prostate cancer cell line Du145, an ovarian cancer cell line SKOV3, and non-small cell lung cancer cell lines NCI-H1299 and A549 were treated with compound 11k (formula 1-7) at concentrations of 0 (DMSO), 0.1, 0.5, 1, 2, 5, 10, and 20 μM, respectively, for 72 hours, and then cell viability was measured using the MTS assay technique as explained by the description of Experimental Example 1. The significance between the control group and the experimental group was verified using an unpaired Students t-test (*p<0.01; DMSO control vs compound 11k).
In general terms: Tetrazolium assays rely on reduction of a dye to a coloured formazan, in cell work by metabolically active cells.

The nature of data set [2]: Toxicity in JIMT-1 xenograft mice, combination with paclitaxel (body weight, AST, ALT, BUN). Conditions: combination study. The data set is classed as in vivo, Balb/c nude mice.
Data set [3] has as its system ovarian cancer cell line SKOV3. The data set is described as follows: MTS cell viability assay in SKOV3. The data set is classed as cell-based. Conditions: SKOV3, 0.1-20 μM, 72 hours. How it is done: as §1, §2
The subject of another data set is leukemia cell line HL-60. The data set is described as follows: MTS cell viability assay in HL-60. The data set is classed as cell-based. Conditions: HL-60, 0.1-20 μM, 72 hours. The procedure:
as §1, §2

In data set [4] the test system is JIMT-1 breast cancer cell line xenograft. The data set is described as follows: Tumor growth in JIMT-1 xenograft mouse model, combination with paclitaxel. The data set is classed as in vivo, Balb/c nude mice. How it is done: This experiment was performed in an in vivo environment using a xenograft mouse model transplanted with the JIMT-1 breast cancer cell line.
6-week-old mice (Balb/c nude mice) were purchased and raised in an environment where they could freely access food and water. The mice were acclimated for more than 7 days, and then were transplanted with tumor cells. Tumor cells were injected subcutaneously into the mammary gland tissue of JIMT-1 breast cancer cells at a density of 3×10^6 cells/mL per individual, and when the tumor reached a size of 50 to 100 mm^3, the indazole derivative of the present disclosure was administered intraperitoneally, and the tumor growth was measured.

The subject of data set [5] is non-small cell lung cancer cell line A549. The data set is described as follows: MTS cell viability assay in A549. Conditions: A549, 0.1-20 μM, 72 hours. Type of data set: cell-based. The procedure: as §1, §2
In data set [6] the test system is prostate cancer cell line Du145. Put plainly: MTS cell viability assay in Du145. The data set is classed as cell-based. As to conditions: Du145, 0.1-20 μM, 72 hours. The procedure: as §1, §2
In data set [7] the test system is liver cancer cell line HepG2. Put plainly: MTS cell viability assay in HepG2. Conditions: HepG2, 0.1-20 μM, 72 hours. The data set is classed as cell-based. The procedure:
as §1, §2

Data set [8] deals with non-small cell lung cancer cell line NCI-H1299. The data set is described as follows: MTS cell viability assay in NCI-H1299. Type of data set: cell-based. As to conditions: NCI-H1299, 0.1-20 μM, 72 hours. How it is done: as §1, §2

For `COc1c(C(=O)Nc2ccc3c(C)nn(CCC4CCN(C)CC4)c3c2)ccc2c1C=CC(C)(C)O2` [compound 11k, 5-Methoxy-2,2-dimethyl-N-(3-methyl-1-(2-(1-methylpiperidin-4-yl)ethyl)-1H-indazol-6-yl)-2H-chromene-6-carboxamide], the cell viability result (in data set [1]; in data set [3]; in the data set on leukemia cell line HL-60; in data set [5]; in [6]; in [7]) was “effective in inhibiting cell viability” throughout. For the same molecule, in data set [8], the cell viability result is on record as “effective in inhibiting cell viability”. The “AST and ALT levels, BUN assay” value in [2] (blood of the mouse model) is “levels similar to those of the control group”. In addition, the body weight entry in data set [2] was “remained unchanged”. Also, the tumor weight in [4] (measured after tumor resection) was found to be 500 mg. Besides, the tumor volume in data set [4] (measured at 40 days after drug administration) turned out to be 786.392 mm^3.
